{
  "source": "patent US7709463B2",
  "about": "“Idraparinux (SanOrg34006) for treatment of venous events in patients with deep venous thrombosis” (Sanofi-Aventis, priority 2002, dated 2010)",
  "assay_type_in_all_cases": "in vivo, human",
  "key": {"[1]": {"system": "patients with confirmed symptomatic proximal DVT", "test": "Change in thrombotic burden assessed by central adjudication committee (CUS and PLS vs baseline), phase II study", "description": "(§1) The study design is illustrated in FIG. 1.\n(§2) Each treatment group was to consist of 130 patients, of which at least 100 patients eligible for inclusion in the Intent-To-Treat (ITT) group. Subjects in the SanOrg34006 treatment groups were to be followed-up during a four-week period after the final assessments.\nPrimary efficacy parameter: change in thrombotic burden as assessed by the central adjudication committee using a 3-point ordinal outcome scale for the comparison of CUS and PLS (Perfusion Lung Scan) after 12 weeks of randomized treatment with baseline measurements (i.e. deterioration, normalization, or no relevant change) including a supplementary analysis on substantial improvement.\n(§3) Secondary efficacy parameters: change in thrombotic burden using a binary scale (i.e. deterioration versus no deterioration); change of CUS on a 3-point ordinal scale; change of PLS on a 3-point ordinal scale; the composite clinical outcome (non-fatal symptomatic PE and/or recurrent DVT, death due to PE and/or DVT or unexplained, and any important change in therapeutic management of thrombotic events); coagulation markers: plasma D-dimer (fibrin fragment, released in process of thrombolysis; measure for ongoing thrombosis) and TAT (Thrombin-Antithrombin Complex) concentrations during the study treatment. • Safety"}, "[2]": {"system": "patients with confirmed symptomatic proximal DVT", "test": "Composite clinical outcome assessed by CAC (recurrent DVT, symptomatic PE or unexplained death), phase II study", "description": "as §1, §2, §3"}, "[3]": {"test": "Plasma concentrations / population pharmacokinetics of SanOrg34006, phase II study", "protocol": "The secondary objective was to assess population pharmacokinetics of SanOrg34006.\nPlasma concentrations of SanOrg34006 were assessed within 48 h prior to the administration of SanOrg34006 in Weeks 2, 4 and 7. In addition during Week 7 within the time frames 0.5-2 h, 2-6 h, 6-48 h and 120-168 h post dose. In a subset of patients a more extensive sampling scheme was applied with pre-dose samples before each administration and the serial scheme for Week 7 also applied to Week 1 and 12."}, "[4]": {"system": "patients with confirmed symptomatic proximal DVT", "test": "Tolerability: adverse events, laboratory parameters, vital signs, phase II study", "description": "as §1, §2\n[…]: (serious) adverse events, laboratory parameters (hematology, biochemistry, coagulation status, platelet counts), and vital signs (blood pressure, heart rate, body weight)."}, "[5]": {"system": "patients with confirmed symptomatic proximal DVT", "test": "Bleeding events during randomized treatment, phase II study", "description": "as §1, §2\nPrimary safety parameters: incidence of major bleeding and decreased platelet count."}, "[6]": {"conditions": "SanOrg34006 2.5 mg SC once weekly, 12 weeks, ITT (N = 125)"}, "[7]": {"conditions": "SanOrg34006 5 mg SC once weekly, 12 weeks, ITT (N = 128)"}, "[8]": {"conditions": "SanOrg34006 7.5 mg SC once weekly, 12 weeks, ITT (N = 118)"}, "[9]": {"conditions": "SanOrg34006 10 mg SC once weekly, 12 weeks, ITT (N = 119)"}, "[10]": {"conditions": "Week 12 vs first administration"}, "[11]": {"conditions": "oral warfarin, 12-week course, ITT (N = 124)"}, "[12]": {"conditions": "oral warfarin, all patients with randomized treatment (N = 132)"}},
  "data": [
    {"smiles": "CO[C@H]1O[C@H](COS(=O)(=O)O)[C@@H](O[C@@H]2O[C@@H](C(=O)O)[C@@H](O[C@H]3O[C@H](COS(=O)(=O)O)[C@@H](O[C@@H]4O[C@H](C(=O)O)[C@@H](O[C@H]5O[C@H](COS(=O)(=O)O)[C@@H](OC)[C@H](OC)[C@H]5OC)[C@H](OC)[C@H]4OC)[C@H](OS(=O)(=O)O)[C@H]3OS(=O)(=O)O)[C@H](OC)[C@H]2OC)[C@H](OS(=O)(=O)O)[C@H]1OS(=O)(=O)O", "note": "[SanOrg34006, methyl O-(2,3,4-tri-O-methyl-6-O-sulfo-α-D-glucopyranosyl)-(1→4)-O-(2,3-di-O-methyl-β-D-glucopyranosyluronic acid)-(1→4)-O-(2,3,6-tri-O-sulfo-α-D-glucopyranosyl)-(1→4)-O-(2,3-di-O-methyl-α-L-idopyranosyluronic acid)-(1→4)-2,3,6-tri-O-sulfo-α-D-glucopyranoside]", "values": [
      {"measurement": "Deterioration, overall change in thrombotic burden (2-point scale)", "setting": "[1]; [6]", "value": "6 (4.8) n (%)"},
      {"measurement": "Deterioration, overall change in thrombotic burden (3-point scale)", "setting": "[1]; [6]", "value": "6 (4.8) n (%)"},
      {"measurement": "No Deterioration, overall change in thrombotic burden (2-point scale)", "setting": "[1]; [6]", "value": "119 (95.2) n (%)"},
      {"measurement": "No Relevant Change, overall change in thrombotic burden (3-point scale)", "setting": "[1]; [6]", "value": "87 (69.6) n (%)"},
      {"measurement": "Normalization, overall change in thrombotic burden (3-point scale)", "setting": "[1]; [6]", "value": "32 (25.6) n (%)"},
      {"measurement": "Deterioration, overall change in thrombotic burden (2-point scale)", "setting": "[1]; [7]", "value": "8 (6.3) n (%)"},
      {"measurement": "Deterioration, overall change in thrombotic burden (3-point scale)", "setting": "[1]; [7]", "value": "8 (6.3) n (%)"},
      {"measurement": "No Deterioration, overall change in thrombotic burden (2-point scale)", "setting": "[1]; [7]", "value": "120 (93.8) n (%)"},
      {"measurement": "No Relevant Change, overall change in thrombotic burden (3-point scale)", "setting": "[1]; [7]", "value": "89 (69.5) n (%)"},
      {"measurement": "Normalization, overall change in thrombotic burden (3-point scale)", "setting": "[1]; [7]", "value": "31 (24.2) n (%)"},
      {"measurement": "Deterioration, overall change in thrombotic burden (2-point scale)", "setting": "[1]; [8]", "value": "8 (6.8) n (%)"},
      {"measurement": "Deterioration, overall change in thrombotic burden (3-point scale)", "setting": "[1]; [8]", "value": "8 (6.8) n (%)"},
      {"measurement": "No Deterioration, overall change in thrombotic burden (2-point scale)", "setting": "[1]; [8]", "value": "110 (93.2) n (%)"},
      {"measurement": "No Relevant Change, overall change in thrombotic burden (3-point scale)", "setting": "[1]; [8]", "value": "81 (68.6) n (%)"},
      {"measurement": "Normalization, overall change in thrombotic burden (3-point scale)", "setting": "[1]; [8]", "value": "29 (24.6) n (%)"},
      {"measurement": "Deterioration, overall change in thrombotic burden (2-point scale)", "setting": "[1]; [9]", "value": "15 (12.6) n (%)"},
      {"measurement": "Deterioration, overall change in thrombotic burden (3-point scale)", "setting": "[1]; [9]", "value": "15 (12.6) n (%)"},
      {"measurement": "No Deterioration, overall change in thrombotic burden (2-point scale)", "setting": "[1]; [9]", "value": "104 (87.4) n (%)"},
      {"measurement": "No Relevant Change, overall change in thrombotic burden (3-point scale)", "setting": "[1]; [9]", "value": "74 (62.2) n (%)"},
      {"measurement": "Normalization, overall change in thrombotic burden (3-point scale)", "setting": "[1]; [9]", "value": "30 (25.2) n (%)"},
      {"measurement": "efficacy compared with warfarin", "setting": "[1]; SanOrg34006 doses tested", "value": "No differences in efficacy"},
      {"measurement": "dose-response relationship for primary and secondary efficacy endpoints", "setting": "[1]; tested doses 2.5-10 mg", "value": "No statistically significant dose-response relationship"},
      {"measurement": "No fatal or non-fatal recurrent DVT, symptomatic PE or unexplained death (composite clinical outcome)", "setting": "[2]; [6]", "value": "125 (100.0) n (%)"},
      {"measurement": "Yes: fatal or non-fatal recurrent DVT, symptomatic PE or unexplained death (composite clinical outcome)", "setting": "[2]; [6]", "value": "0 (0.0) n (%)"},
      {"measurement": "No fatal or non-fatal recurrent DVT, symptomatic PE or unexplained death (composite clinical outcome)", "setting": "[2]; [7]", "value": "126 (98.4) n (%)"},
      {"measurement": "Yes: fatal or non-fatal recurrent DVT, symptomatic PE or unexplained death (composite clinical outcome)", "setting": "[2]; [7]", "value": "2 (1.6) n (%)"},
      {"measurement": "No fatal or non-fatal recurrent DVT, symptomatic PE or unexplained death (composite clinical outcome)", "setting": "[2]; [8]", "value": "118 (100.0) n (%)"},
      {"measurement": "Yes: fatal or non-fatal recurrent DVT, symptomatic PE or unexplained death (composite clinical outcome)", "setting": "[2]; [8]", "value": "0 (0.0) n (%)"},
      {"measurement": "No fatal or non-fatal recurrent DVT, symptomatic PE or unexplained death (composite clinical outcome)", "setting": "[2]; [9]", "value": "116 (97.5) n (%)"},
      {"measurement": "Yes: fatal or non-fatal recurrent DVT, symptomatic PE or unexplained death (composite clinical outcome)", "setting": "[2]; [9]", "value": "3 (2.5) n (%)"},
      {"measurement": "plasma concentrations relative to levels associated with an increased bleeding risk", "setting": "[3]; 2.5 mg SanOrg34006", "value": "remained below the levels associated with an increased bleeding risk"},
      {"measurement": "share of patient population with plasma levels 'too low' in terms of the ACCP guidelines", "setting": "[3]; 2.5 mg dose group", "value": 75, "unit": "%"},
      {"measurement": "dose proportionality of pharmacokinetics", "setting": "[3]; 2.5-10 mg once weekly", "value": "Dose-proportional"},
      {"measurement": "AUC values at steady state relative to first administration", "setting": "[3]; [10]", "value": "twice as high"},
      {"measurement": "trough concentrations at steady state relative to first administration", "setting": "[3]; [10]", "value": "three times as high"},
      {"measurement": "anti-Xa activity corresponding with plasma trough levels", "setting": "[3]; dose of 2.5 mg, once a week", "value": "0.09-0.26 anti-Xa U/mL"},
      {"measurement": "plasma trough levels (Cmin)", "setting": "[3]; dose of 2.5 mg, once a week", "value": "126 ± 63", "unit": "ng/mL"},
      {"measurement": "time at which steady state had been reached", "setting": "[3]; once-weekly administration", "value": "Week 12"},
      {"measurement": "tolerability in terms of adverse events (other than bleeding events), laboratory parameters, and vital signs", "setting": "[4]; in vivo", "value": "generally well tolerated"},
      {"measurement": "dose group outcome under stopping rule for major bleedings", "setting": "[5]; in vivo", "value": "prematurely discontinued"}
    ]},
    {"smiles": "CC(=O)CC(c1ccccc1)c1c(O)c2ccccc2oc1=O", "note": "(centres unmarked) [Warfarin, warfarin, reference compound]", "values": [
      {"measurement": "Deterioration, overall change in thrombotic burden (2-point scale)", "setting": "[1]; [11]", "value": "9 (7.3) n (%)"},
      {"measurement": "Deterioration, overall change in thrombotic burden (3-point scale)", "setting": "[1]; [11]", "value": "9 (7.3) n (%)"},
      {"measurement": "No Deterioration, overall change in thrombotic burden (2-point scale)", "setting": "[1]; [11]", "value": "115 (92.7) n (%)"},
      {"measurement": "No Relevant Change, overall change in thrombotic burden (3-point scale)", "setting": "[1]; [11]", "value": "84 (67.7) n (%)"},
      {"measurement": "Normalization, overall change in thrombotic burden (3-point scale)", "setting": "[1]; [11]", "value": "31 (25.0) n (%)"},
      {"measurement": "Yes: fatal or non-fatal recurrent DVT, symptomatic PE or unexplained death (composite clinical outcome)", "setting": "[2]; [11]", "value": "2 (1.6) n (%)"},
      {"measurement": "tolerability in terms of adverse events (other than bleeding events), laboratory parameters, and vital signs", "setting": "[4]; all SanOrg34006 doses, warfarin", "value": "generally well tolerated"},
      {"measurement": "Any Bleeding during randomized treatment", "setting": "[5]; [12]", "value": "11 (8.3) n (%)"},
      {"measurement": "Major Bleeding during randomized treatment", "setting": "[5]; [12]", "value": "1 (0.8) n (%)"},
      {"measurement": "No Major Bleeding during randomized treatment", "setting": "[5]; [12]", "value": "131 (99.2) n (%)"}
    ]}
  ]
}
